Laboratory results as given in patent publication US4308210A, “Nanaomycin B and therapeutic compositions containing same” (The Kitasato Institute, priority 1976, dated 1981).
Values after ≈ are worked out from the molar mass of the structure shown.

Key:
Type in all cases: cell-based
[1] = test system: Aspergillus fumigatus; experiment: Antifungal activity, agar dilution method; details: potato agar, pH 6.4, 27° C., 4 days
Procedure: (§1) Minimal inhibitory concentration is assayed by agar dilution method
(§2) (potato agar, pH 6.4, 27° C., 4 days)

[2] = test system: Aspergillus niger; experiment: Antifungal activity, agar dilution method; details: potato agar, pH 6.4, 27° C., 4 days
Procedure: as §1, §2

[3] = test system: Candida albicans; experiment: Antifungal activity, agar dilution method; details: potato agar, pH 6.4, 27° C., 4 days
Procedure: as §1, §2

[4] = test system: Microsporum gypseum; experiment: Antifungal activity, agar dilution method; details: potato agar, pH 6.4, 27° C., 4 days
Procedure: as §1, §2

[5] = test system: Saccharomyces sake; experiment: Antifungal activity, agar dilution method; details: potato agar, pH 6.4, 27° C., 4 days
Procedure: as §1, §2

[6] = test system: Trichophyton asteroides; experiment: Antifungal activity, agar dilution method; details: potato agar, pH 6.4, 27° C., 4 days
Procedure: as §1, §2

[7] = test system: Trichophyton ferrugineum; experiment: Antifungal activity, agar dilution method; details: potato agar, pH 6.4, 27° C., 4 days
Procedure: as §1, §2

[8] = test system: Trichophyton interdigitale; experiment: Antifungal activity, agar dilution method; details: potato agar, pH 6.4, 27° C., 4 days
Procedure: as §1, §2

[9] = test system: Trichophyton rubrum; experiment: Antifungal activity, agar dilution method; details: potato agar, pH 6.4, 27° C., 4 days
Procedure: as §1, §2

[10] = test system: Trichophyton schoenleini; experiment: Antifungal activity, agar dilution method; details: potato agar, pH 6.4, 27° C., 4 days
Procedure: as §1, §2

[11] = test system: Trichophyton violaceum; experiment: Antifungal activity, agar dilution method; details: potato agar, pH 6.4, 27° C., 4 days
Procedure: as §1, §2

[12] = test system: mycoplasma; experiment: Antimycoplasma activity, paper disc method; details: Eiken PPLO agar, pH 7.8, 37° C., 1 day
Procedure: Inhibitory zone is assayed by paper disc method (Eiken PPLO agar, pH 7.8,

[13] = Trichophyton, 96 h, read-out: Minimal Inhibitory Con.

ethylkalafunginate
Minimal Inhibitory Con. [1]: > 100 µg/mL
Minimal Inhibitory Con. [2]: > 100 µg/mL
Minimal Inhibitory Con. [3]: > 100 µg/mL
Minimal Inhibitory Con. [4]: > 100 µg/mL
Minimal Inhibitory Con. [5]: > 100 µg/mL
Minimal Inhibitory Con. [6]: > 100 µg/mL
Minimal Inhibitory Con. [7]: > 100 µg/mL
Minimal Inhibitory Con. [8]: > 100 µg/mL
Minimal Inhibitory Con. [9]: > 100 µg/mL
Minimal Inhibitory Con. [10]: > 100 µg/mL
Minimal Inhibitory Con. [11]: > 100 µg/mL
Inhibitory Zone ([12]; 10 μg/ml): none
Inhibitory Zone ([12]; 100 μg/ml): none

CCC[C@H]1O[C@H](CC(=O)O)CC2=C1C(=O)c1c(O)cccc1C2=O [Deoxyfrenolicin, deoxyfrenolicin]
MIC ([1]; Aspergillus fumigatus, 96 h, read-out: Minimal Inhibitory Con.): 6.3 µg/mL (≈ 19.1 µM)
MIC ([2]; Aspergillus niger, 96 h, read-out: Minimal Inhibitory Con.): > 100 µg/mL
MIC ([3]; Candida albicans, 96 h, read-out: Minimal Inhibitory Con.): 50 µg/mL (≈ 151 µM)
MIC ([4]; Nannizzia gypsea, 96 h, read-out: Minimal Inhibitory Con.): < 0.2 µg/mL
MIC ([5]; Saccharomyces, 96 h, read-out: Minimal Inhibitory Con.): 6.3 µg/mL (≈ 19.1 µM)
MIC [6, 13]: < 0.2 µg/mL
MIC ([7]; Microsporum ferrugineum, 96 h, read-out: Minimal Inhibitory Con.): 3.1 µg/mL (≈ 9.38 µM)
MIC ([8]; Trichophyton interdigitale, 96 h, read-out: Minimal Inhibitory Con.): 0.4 µg/mL (≈ 1.21 µM)
MIC ([9]; Trichophyton rubrum, 96 h, read-out: Minimal Inhibitory Con.): < 0.2 µg/mL
MIC [10, 13]: < 0.2 µg/mL
MIC ([11]; Trichophyton violaceum, 96 h, read-out: Minimal Inhibitory Con.): 0.8 µg/mL (≈ 2.42 µM)
zone of inhibition at 10 µg/mL ([12]; Mycoplasma, 24 h, 10 μg/ml, read-out: Inhibitory Zone): 14.6 mm
zone of inhibition at 100 µg/mL ([12]; Mycoplasma, 24 h, 100 μg/ml, read-out: Inhibitory Zone): 21.8 mm
